Measurements published in EP0360850B1, “ANTIMICROBIAL AGENTS” (GIVAUDAN-ROURE (INTERNATIONAL) S.A., priority 1988, dated 1989).
Converted amounts (≈) assume the structure as drawn. Like-named read-outs stand apart in the source and are kept apart here. Each block holds one compound with its values, some of them ahead of it.

Experiments:
Aspergillus niger = test: Preservative test in cosmetic lotion, weekly reinoculation; format: cell-based; conditions: A.n.
Experimental: (§1) a. Cutting Oil Emulsions. […] Various aliquots of a 6% solution of the test compound in ethanol were added to cutting oil emulsions prepared by diluting Kutwell® 30 cutting oil concentrate 1 to 30 with water. These samples were inoculated with a culture of Ps. aeruginosa and incubated at 28°C on a rotary shaker. At weekly intervals, the samples were examined for microorganisms and then reinoculated and incubated. […] Cosmetic compositions. […] Serial dilutions of the compounds in dimethylformamide were added to a prepared, sterile cosmetic lotion of the following composition:
(§2) Samples of the lotion containing varying levels of the acrylonitrile derivatives were divided into two portions; one portion was inoculated with a spore suspension of A. niger, and the other portion with a 24-hour nutrient broth culture of Ps. aeruginosa. These two organisms are frequently found as contaminants in cosmetic products. The samples were incubated for a 4-week period with weekly examinations for the growth of the organisms. At weekly intervals, the samples were also reinoculated with the test organisms. Presence of fungal growth was determined macroscopically while bacterial contamination was determined by streaking one 4-mm loopful (0.01ml) of the lotion onto the surface of trypticase glucose extract agar (Baltimore Biological Laboratories, Baltimore, MD) containing 0.005% triphenyl tetrazolium chloride and letheen antidote. Results of these tests showing the minimum inhibitory concentration through the 4-week incubation period are tabulated in Table IV and show, once again, that the compounds where R is methyl or ethyl show a broad spectrum activity for the preservation of cosmetic products against the type of fungus and bacterium most likely to cause problems in cosmetics.

Pseudomonas aeruginosa = test: as above; format: cell-based
Experimental: as §1, §2

[1] = Week 1, read-out: Minimum Inhibitory Concentration Week 1
[2] = Week 2, weekly reinoculation, read-out: Minimum Inhibitory Concentration Week 2
[3] = Week 3, weekly reinoculation, read-out: Minimum Inhibitory Concentration Week 3
[4] = Week 4, weekly reinoculation, read-out: Minimum Inhibitory Concentration Week 4
[5] = read-out: Minimum Inhibitory Concentration Week 1
[6] = read-out: Minimum Inhibitory Concentration Week 2
[7] = read-out: Minimum Inhibitory Concentration Week 3
[8] = read-out: Minimum Inhibitory Concentration Week 4

SMILES: CSC=C(Br)C#N [Example 1, α-Bromo-β-methylthio-acrylonitrile]
MIC (Aspergillus niger; [1]): < 7.8 mg/L
MIC (Aspergillus niger; [2]): < 7.8 mg/L
MIC (Aspergillus niger; [3]): < 7.8 mg/L
MIC (Aspergillus niger; [4]): < 7.8 mg/L
MIC (Pseudomonas aeruginosa; [5]): < 7.8 mg/L
MIC (Pseudomonas aeruginosa; [6]): < 7.8 mg/L
MIC (Pseudomonas aeruginosa; [7]): < 7.8 mg/L
MIC (Pseudomonas aeruginosa; [8]): < 7.8 mg/L

SMILES: CSC=C(Cl)C#N [Example 2, α-Chloro-β-methylthio-acrylonitrile]
MIC (Aspergillus niger; [1]): < 7.8 mg/L
MIC (Aspergillus niger; [2]): < 7.8 mg/L
MIC (Aspergillus niger; [3]): < 7.8 mg/L
MIC (Aspergillus niger; [4]): < 7.8 mg/L
MIC (Pseudomonas aeruginosa; [5]): 31 to 62 mg/L (≈ 232 to 464 µM)
MIC (Pseudomonas aeruginosa; [6]): 15 to 31 mg/L (≈ 112 to 232 µM)
MIC (Pseudomonas aeruginosa; [7]): 15 to 31 mg/L (≈ 112 to 232 µM)
MIC (Pseudomonas aeruginosa; [8]): 15 to 31 mg/L (≈ 112 to 232 µM)

SMILES: CCSC=C(Cl)C#N [Example 3, α-chloro-β-ethylthio-acrylonitrile]
MIC (Aspergillus niger; [1]): < 7.8 mg/L
MIC (Aspergillus niger; [2]): < 7.8 mg/L
MIC (Aspergillus niger; [3]): < 7.8 mg/L
MIC (Aspergillus niger; [4]): < 7.8 mg/L
MIC (Pseudomonas aeruginosa; [5]): 250 to 500 mg/L (≈ 1690 to 3390 µM)
MIC (Pseudomonas aeruginosa; [6]): 125 to 250 mg/L (≈ 847 to 1690 µM)
MIC (Pseudomonas aeruginosa; [7]): 125 to 250 mg/L (≈ 847 to 1690 µM)
MIC (Pseudomonas aeruginosa; [8]): 125 to 250 mg/L (≈ 847 to 1690 µM)

SMILES: CCSC=C(Br)C#N [Example 4, α-bromo-β-ethylthio-acrylonitrile]
MIC (Aspergillus niger; [1]): < 7.8 mg/L
MIC (Aspergillus niger; [2]): < 7.8 mg/L
MIC (Aspergillus niger; [3]): < 7.8 mg/L
MIC (Aspergillus niger; [4]): < 7.8 mg/L
MIC (Pseudomonas aeruginosa; [5]): 31 to 62 mg/L (≈ 161 to 323 µM)
MIC (Pseudomonas aeruginosa; [6]): 31 to 62 mg/L (≈ 161 to 323 µM)
MIC (Pseudomonas aeruginosa; [7]): 31 to 62 mg/L (≈ 161 to 323 µM)
MIC (Pseudomonas aeruginosa; [8]): 31 to 62 mg/L (≈ 161 to 323 µM)

SMILES: CCCSC=C(Cl)C#N [Example 5]
MIC (Aspergillus niger; [1]): 125 to 250 mg/L (≈ 773 to 1550 µM)
MIC (Aspergillus niger; [2]): 125 to 250 mg/L (≈ 773 to 1550 µM)
MIC (Aspergillus niger; [3]): 125 to 250 mg/L (≈ 773 to 1550 µM)
MIC (Aspergillus niger; [4]): 125 to 250 mg/L (≈ 773 to 1550 µM)
MIC (Pseudomonas aeruginosa; [5]): > 2000 mg/L
MIC (Pseudomonas aeruginosa; [6]): 1000 to 2000 mg/L (≈ 6190 to 12400 µM)
MIC (Pseudomonas aeruginosa; [7]): 1000 to 2000 mg/L (≈ 6190 to 12400 µM)
MIC (Pseudomonas aeruginosa; [8]): 500 to 1000 mg/L (≈ 3090 to 6190 µM)

MIC (Pseudomonas aeruginosa; cosmetic lotion, P.a., Week 1, read-out: Minimum Inhibitory Concentration Week 1): > 2000 mg/L
SMILES: CCCCSC=C(Cl)C#N [Example 6]
